{"source": "patent US20230357310A1", "about": "“Saponin derivatives with improved therapeutic window” (priority 2019, published 2023)", "key": {"[1]": {"assay": "Critical micellar concentration (ANS fluorescence)", "assay_type": "physicochemical", "conditions": "comparison in words", "description": "The critical micellar concentration (CMC) of saponins derived from Saponaria officinalis (SO) (Table A7) and derived from Quillaja saponaria (QS) (Table A8, and Table A9) was determined by the method of DeVendittis et al. (A fluorimetric method for the estimation of the critical micelle concentration of surfactants, Analytical Biochemistry, Volume 115, Issue 2, August 1981, Pages 278-286) as follows:\nThe emission spectrum of 8-Anilinonaphthalene-1-sulfonic acid (ANS) in either purified water (MQ) or PBS (Dulbecco's PBS+/+) was determined at dry weight concentrations of saponins ranging from 1 to 1400 μM to cover the range below and above the CMC. Above the CMC, the fluorescence yield of ANS increases and the wavelength of maximum emission decreases due to portioning of the fluorescent dye into micelles. Fluorescence yields were recorded on a Fluoroskan Ascent FL (Thermo Scientific) at an excitation wavelength of 355 nm, and an emission wavelength of 460 nm. 6 μg at a concentration of 75.86 μM of ANS were used per sample and measurement."}, "A431 cells": {"system": "A431 cells", "assay_type": "cell-based", "conditions": "A431, Table A6; read-out: IC50 nM (Toxicity)"}}, "data": [{"smiles": "CC(=O)OC1C(C)OC(OC2C(C)OC(OC(=O)[C@]34CCC(C)(C)CC3C3=CCC5[C@@]6(C)CC[C@H](OC7OC(C(=O)NCCN8C(=O)C=CC8=O)C(O)C(OC8OCC(O)C(O)C8O)C7OC7OC(CO)C(O)C(O)C7O)[C@@](C)(C=O)C6CC[C@@]5(C)[C@]3(C)C[C@H]4O)C(OC3OC(C)C(OC4OCC(O)C(OC5OC(CO)C(O)C(O)C5O)C4O)C(O)C3O)C2O)C(O)C1OC1OCC(O)C(O)C1O", "note": "(some centres unmarked) [SO1861-Glu-AEM]", "values": [{"measurement": "CMC compared with native (underivatised) saponin", "setting": "[1]", "result": "lower CMC values"}, {"measurement": "IC50", "setting": "A431 cells", "result": "> 100000", "unit": "nM"}]}]}
